{"source": "patent US9169254B2", "about": "“Spiroimidazolone derivative” (Chugai Seiyaku Kabushiki Kaisha, priority 2009, dated 2015)", "data": [{"biological_target": "T1, human PTH1 receptor (Homo sapiens, UniProt Q03431)", "T1 sequence (Q03431 27-593)": "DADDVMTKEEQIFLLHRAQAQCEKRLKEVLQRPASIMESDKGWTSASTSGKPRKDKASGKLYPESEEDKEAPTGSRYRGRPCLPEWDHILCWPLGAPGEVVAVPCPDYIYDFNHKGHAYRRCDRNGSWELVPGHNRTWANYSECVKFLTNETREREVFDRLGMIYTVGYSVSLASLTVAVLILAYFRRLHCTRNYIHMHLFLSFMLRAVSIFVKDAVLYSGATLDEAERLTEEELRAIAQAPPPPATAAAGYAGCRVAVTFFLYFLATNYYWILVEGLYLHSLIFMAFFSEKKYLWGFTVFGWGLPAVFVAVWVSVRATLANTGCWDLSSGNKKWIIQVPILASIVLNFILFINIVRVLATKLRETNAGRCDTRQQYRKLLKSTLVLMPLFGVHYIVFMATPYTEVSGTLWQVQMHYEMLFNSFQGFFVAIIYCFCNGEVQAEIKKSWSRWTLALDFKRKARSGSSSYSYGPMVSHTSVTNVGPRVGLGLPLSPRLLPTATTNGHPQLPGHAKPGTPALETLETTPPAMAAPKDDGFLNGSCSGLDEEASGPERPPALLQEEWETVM", "assay": "In vitro cAMP signal activity in HKRK-B7 cells (LLC-PK1 cells overexpressing the human PTH1 receptor)", "type": "cell-based", "settings": "HKRK-B7 cells; compound at 1×10^−3 M; cAMP produced as percentage of that produced by hPTH(1-34) at 100 nM", "units": {"cAMP production activity (%)": "%"}, "values": [{"smiles": "Cc1cc(C(=O)N2CCC(C)(O)CC2)cc(C)c1/C=C/S(=O)(=O)N1CCC2(CC1)N=C(c1ccc(Cl)c(OC(C)(C)C(F)(F)F)c1)NC2=O", "note": "[Compound 1210, 2-[4-chloro-3-(2,2,2-trifluoro-1,1-dimethyl-ethoxy)-phenyl]-8-{(E)-2-[4-(4-hydroxy-4-methyl-piperidine-1-carbonyl)-2,6-dimethyl-phenyl]-ethenesulfonyl}-1,3,8-triaza-spiro[4.5]dec-1-en-4-one]", "cAMP production activity (%)": 86}, {"smiles": "[2H]C([2H])([2H])C([2H])([2H])C([2H])([2H])C([2H])([2H])Oc1cc(C2=NC3(CCN(S(=O)(=O)/C=C/c4c(C)cc(C(=O)N5CCC(C)(O)CC5)cc4C)CC3)C(=O)N2)ccc1F", "note": "[Compound 1211, 2-(3-[1,1,2,2,3,3,4,4,4-^2H9]butoxy-4-fluoro-phenyl)-8-{(E)-2-[4-(4-hydroxy-4-methyl-piperidine-1-carbonyl)-2,6-dimethyl-phenyl]-ethenesulfonyl}-1,3,8-triaza-spiro[4.5]dec-1-en-4-one]", "cAMP production activity (%)": 99}, {"smiles": "Cc1cc(C(=O)N2CCC(C)(O)CC2)cc(C)c1/C=C/S(=O)(=O)N1CCC2(CC1)N=C(c1ccc3c(c1)OC(F)(F)C(F)(F)O3)NC2=O", "note": "[Compound 1212, 8-{(E)-2-[4-(4-hydroxy-4-methyl-piperidine-1-carbonyl)-2,6-dimethyl-phenyl]-ethenesulfonyl}-2-(2,2,3,3-tetrafluoro-2,3-dihydro-benzo[1,4]dioxin-6-yl)-1,3,8-triaza-spiro[4.5]dec-1-en-4-one]", "cAMP production activity (%)": 96}, {"smiles": "Cc1cc(C(=O)N2CCC(C)(O)CC2)cc(C)c1/C=C/S(=O)(=O)N1CCC2(CC1)N=C(c1ccc(OC(F)(F)C(F)F)cc1)NC2=O", "note": "[Compound 1213, 8-{(E)-2-[4-(4-hydroxy-4-methyl-piperidine-1-carbonyl)-2,6-dimethyl-phenyl]-ethenesulfonyl}-2-[4-(1,1,2,2-tetrafluoro-ethoxy)-phenyl]-1,3,8-triaza-spiro[4.5]dec-1-en-4-one]", "cAMP production activity (%)": 80}, {"smiles": "Cc1cc(C2=NC3(CCN(S(=O)(=O)/C=C/c4c(C)cc(C(=O)N5CCC(C)(O)CC5)cc4C)CC3)C(=O)N2)ccc1OC(F)(F)F", "note": "[Compound 1214, 8-{(E)-2-[4-(4-hydroxy-4-methyl-piperidine-1-carbonyl)-2,6-dimethyl-phenyl]-ethenesulfonyl}-2-(3-methyl-4-trifluoromethoxy-phenyl)-1,3,8-triaza-spiro[4.5]dec-1-en-4-one]", "cAMP production activity (%)": 79}, {"smiles": "Cc1cc(C(=O)N2CCC(C)(O)CC2)cc(C)c1/C=C/S(=O)(=O)N1CCC2(CC1)N=C(c1ccc(F)c(OCCCF)c1)NC2=O", "note": "[Compound 1215, 2-[4-fluoro-3-(3-fluoro-propoxy)-phenyl]-8-{(E)-2-[4-(4-hydroxy-4-methyl-piperidine-1-carbonyl)-2,6-dimethyl-phenyl}-ethenesulfonyl]-1,3,8-triaza-spiro[4.5]dec-1-en-4-one]", "cAMP production activity (%)": 74}, {"smiles": "Cc1cc(C(=O)N2CCC(C)(O)CC2)cc(C)c1/C=C/S(=O)(=O)N1CCC2(CC1)N=C(c1ccc(OCC(F)(F)F)c(Cl)c1)NC2=O", "note": "[Compound 1216, 2-[3-chloro-4-(2,2,2-trifluoro-ethoxy)-phenyl]-8-{(E)-2-[4-(4-hydroxy-4-methyl-piperidine-1-carbonyl)-2,6-dimethyl-phenyl]-ethenesulfonyl}-1,3,8-triaza-spiro[4.5]dec-1-en-4-one]", "cAMP production activity (%)": 61}, {"smiles": "Cc1cc(C(=O)N2CCC(C)(O)CC2)cc(C)c1/C=C/S(=O)(=O)N1CCC2(CC1)N=C(c1ccc(F)c(C(F)F)c1)NC2=O", "note": "[Compound 1217, 2-(3-difluoromethyl-4-fluoro-phenyl)-8-{(E)-2-[4-(4-hydroxy-4-methyl-piperidine-1-carbonyl)-2,6-dimethyl-phenyl]-ethenesulfonyl}-1,3,8-triaza-spiro[4.5]dec-1-en-4-one]", "cAMP production activity (%)": 68}, {"smiles": "Cc1cc(C(=O)N2CCC(C)(O)CC2)cc(C)c1/C=C/S(=O)(=O)N1CCC2(CC1)N=C(c1ccc(F)c(OCCCC(F)(F)F)c1)NC2=O", "note": "[Compound 1218, 2-[4-fluoro-3-(4,4,4-trifluoro-butoxy)-phenyl]-8-{(E)-2-[4-(4-hydroxy-4-methyl-piperidine-1-carbonyl)-2,6-dimethyl-phenyl]-ethenesulfonyl}-1,3,8-triaza-spiro[4.5]dec-1-en-4-one]", "cAMP production activity (%)": 90}, {"smiles": "Cc1cc(C(=O)N2CCC(C)(O)CC2)cc(C)c1/C=C/S(=O)(=O)N1CCC2(CC1)N=C(c1ccc(C(F)F)c(F)c1)NC2=O", "note": "[Compound 1219, 2-(4-difluoromethyl-3-fluoro-phenyl)-8-{(E)-2-[4-(4-hydroxy-4-methyl-piperidine-1-carbonyl)-2,6-dimethyl-phenyl]-ethenesulfonyl}-1,3,8-triaza-spiro[4.5]dec-1-en-4-one]", "cAMP production activity (%)": 67}, {"smiles": "[2H]C([2H])([2H])C([2H])([2H])C([2H])([2H])C([2H])([2H])Oc1ccc(C2=NC3(CCN(S(=O)(=O)/C=C/c4c(C)cc(C(=O)N5CCC(C)(O)CC5)cc4C)CC3)C(=O)N2)cc1C(F)(F)F", "note": "[Compound 1220, 2-(4-[1,1,2,2,3,3,4,4,4-^2H9]butoxy-3-trifluoromethyl-phenyl)-8-{(E)-2-[4-(4-hydroxy-4-methyl-piperidine-1-carbonyl)-2,6-dimethyl-phenyl]-ethenesulfonyl}-1,3,8-triaza-spiro[4.5]dec-1-en-4-one]", "cAMP production activity (%)": 80}, {"smiles": "[2H]C([2H])([2H])C([2H])([2H])Oc1ccc(C2=NC3(CCN(S(=O)(=O)/C=C/c4c(C)cc(C(=O)N5CCC(C)(O)CC5)cc4C)CC3)C(=O)N2)cc1C(F)(F)F", "note": "[Compound 1221, 2-(4-[1,1,2,2,2-^2H5]ethoxy-3-trifluoromethyl-phenyl)-8-{(E)-2-[4-(4-hydroxy-4-methyl-piperidine-1-carbonyl)-2,6-dimethyl-phenyl]-ethenesulfonyl}-1,3,8-triaza-spiro[4.5]dec-1-en-4-one]", "cAMP production activity (%)": 75}, {"smiles": "[2H]C([2H])([2H])C([2H])(Oc1ccc(C2=NC3(CCN(S(=O)(=O)/C=C/c4c(C)cc(C(=O)N5CCC(C)(O)CC5)cc4C)CC3)C(=O)N2)cc1C(F)(F)F)C([2H])([2H])[2H]", "note": "[Compound 1222, 8-{(E)-2-[4-(4-hydroxy-4-methyl-piperidine-1-carbonyl)-2,6-dimethyl-phenyl]-ethenesulfonyl}-2-(4-[1,2,2,2,2,2,2-^2H7]isopropoxy-3-trifluoromethyl-phenyl)-1,3,8-triaza-spiro[4.5]dec-1-en-4-one]", "cAMP production activity (%)": 77}, {"smiles": "Cc1cc(C(=O)N2CCC(C)(O)CC2)cc(C)c1/C=C/S(=O)(=O)N1CCC2(CC1)N=C(c1ccc(C(F)(F)F)c(OCC(F)(F)C(F)F)c1)NC2=O", "note": "[Compound 1223, 8-{(E)-2-[4-(4-hydroxy-4-methyl-piperidine-1-carbonyl)-2,6-dimethyl-phenyl]-ethenesulfonyl}-2-[3-(2,2,3,3-tetrafluoro-propoxy)-4-trifluoromethyl-phenyl]-1,3,8-triaza-spiro[4.5]dec-1-en-4-one]", "cAMP production activity (%)": 54}, {"smiles": "[2H]C([2H])([2H])C([2H])([2H])Oc1cc(C2=NC3(CCN(S(=O)(=O)/C=C/c4c(C)cc(C(=O)N5CCC(C)(O)CC5)cc4C)CC3)C(=O)N2)ccc1F", "note": "[Compound 1224, 2-(3-[1,1,2,2,2-^2H5]ethoxy-4-fluoro-phenyl)-8-{(E)-2-[4-(4-hydroxy-4-methyl-piperidine-1-carbonyl)-2,6-dimethyl-phenyl]-ethenesulfonyl}-1,3,8-triaza-spiro[4.5]dec-1-en-4-one]", "cAMP production activity (%)": 88}, {"smiles": "[2H]C([2H])([2H])C([2H])(Oc1cc(C2=NC3(CCN(S(=O)(=O)/C=C/c4c(C)cc(C(=O)N5CCC(C)(O)CC5)cc4C)CC3)C(=O)N2)ccc1F)C([2H])([2H])[2H]", "note": "[Compound 1225, 2-(4-fluoro-3-[1,2,2,2,2,2,2-^2H7]isopropoxy-phenyl)-8-{(E)-2-[4-(4-hydroxy-4-methyl-piperidine-1-carbonyl)-2,6-dimethyl-phenyl]-ethenesulfonyl}-1,3,8-triaza-spiro[4.5]dec-1-en-4-one]", "cAMP production activity (%)": 90}, {"smiles": "Cc1cc(C(=O)N2CCC(C)(O)CC2)cc(C)c1/C=C/S(=O)(=O)N1CCC2(CC1)N=C(c1cc(OCC(F)(F)C(F)F)cc(C(F)(F)F)c1)NC2=O", "note": "[Compound 1226, 8-{(E)-2-[4-(4-hydroxy-4-methyl-piperidine-1-carbonyl)-2,6-dimethyl-phenyl]-ethenesulfonyl}-2-[3-(2,2,3,3-tetrafluoro-propoxy)-5-trifluoromethyl-phenyl]-1,3,8-triaza-spiro[4.5]dec-1-en-4-one]", "cAMP production activity (%)": 51}, {"smiles": "Cc1cc(C(=O)N2CCC(C)(O)CC2)cc(C)c1/C=C/S(=O)(=O)N1CCC2(CC1)N=C(c1ccc(Cl)c(OCCCC(F)(F)F)c1)NC2=O", "note": "[Compound 1227, 2-[4-chloro-3-(4,4,4-trifluoro-butoxy)-phenyl]-8-{(E)-2-[4-(4-hydroxy-4-methyl-piperidine-1-carbonyl)-2,6-dimethyl-phenyl]-ethenesulfonyl}-1,3,8-triaza-spiro[4.5]dec-1-en-4-one]", "cAMP production activity (%)": 77}, {"smiles": "Cc1cc(C(=O)N2CCC(C)(O)CC2)cc(C)c1/C=C/S(=O)(=O)N1CCC2(CC1)N=C(c1ccc(C(F)(F)F)c(OCC(F)(F)C(F)(F)F)c1)NC2=O", "note": "[Compound 1228, 8-{(E)-2-[4-(4-hydroxy-4-methyl-piperidine-1-carbonyl)-2,6-dimethyl-phenyl]-ethenesulfonyl}-2-[3-(2,2,3,3,3-pentafluoro-propoxy)-4-trifluoromethyl-phenyl]-1,3,8-triaza-spiro[4.5]dec-1-en-4-one]", "cAMP production activity (%)": 68}]}]}
